The values below come from patent publication US20250230193A1, “CYCLIC COMPOUND HAVING SELECTIVE KRAS INHIBITORY EFFECT ON HRAS AND NRAS” (CHUGAI SEIYAKU KABUSHIKI KAISHA, priority 2022, published 2025).

*1 amine or outer side, *2 acyl side, *3 side chain or, on linkers, in order; H or OH if unused. Where a SMILES comes first, the peptide text is derived from it. Bridges are numbered along the chain shown (N, C = ends). [ ]: non-standard residue; d: D form. The star is where a group is joined. hPhe(3,5-F2-4-CF3) = N[C@@H](CCc1cc(F)c(C(F)(F)F)c(F)c1)C(=O)O; NPrPhe(4-CF3) = CCCN[C@@H](Cc1ccc(C(F)(F)F)cc1)C(=O)O; NMeGly(cPent) = CN[C@H](C(=O)O)C1CCCC1; X13 = CCC[C@](C)(N[*:1])C(=O)[*:2]; αMeI = CC[C@H](C)[C@](C)(N)C(=O)O; αMeF = C[C@](N)(Cc1ccccc1)C(=O)O; NMeD = CN[C@@H](CC(=O)O)C(=O)O; Ac4c(3-oxa) = NC1(C(=O)O)COC1; NMeL = CN[C@@H](CC(C)C)C(=O)O; αMeL = CC(C)C[C@](C)(N)C(=O)O; αMeV = CC(C)[C@](C)(N)C(=O)O; αMeS = C[C@](N)(CO)C(=O)O; Morpholide = C1CN(*)CCO1; Aze = O=C(O)[C@@H]1CCN1; Sar = CNCC(=O)O; Allyl = C=CC*

The target of test [1] is GDP-bound HRAS wild-type protein (Homo sapiens, UniProt P01112). Nature of the test: Binding to HRAS by surface plasmon resonance (SPR), Single Cycle Kinetics. The settings on record: KD ratio HRAS/KRAS, SPR. On the technique in general: Surface plasmon resonance follows binding to a sensor surface in real time, without labels.
Test [2] addresses GDP-bound NRAS wild-type protein (Homo sapiens, UniProt P01111). Nature of the test: Binding to NRAS by surface plasmon resonance (SPR), Single Cycle Kinetics. The settings on record: KD ratio NRAS/KRAS, SPR.

Chain of GDP-bound HRAS wild-type protein (P01112 whole entry): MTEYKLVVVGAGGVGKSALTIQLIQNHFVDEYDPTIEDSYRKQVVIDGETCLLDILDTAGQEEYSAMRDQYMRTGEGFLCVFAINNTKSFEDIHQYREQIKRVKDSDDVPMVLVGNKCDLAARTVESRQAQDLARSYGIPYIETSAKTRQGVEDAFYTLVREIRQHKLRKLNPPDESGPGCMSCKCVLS
Chain of GDP-bound NRAS wild-type protein (P01111 whole entry): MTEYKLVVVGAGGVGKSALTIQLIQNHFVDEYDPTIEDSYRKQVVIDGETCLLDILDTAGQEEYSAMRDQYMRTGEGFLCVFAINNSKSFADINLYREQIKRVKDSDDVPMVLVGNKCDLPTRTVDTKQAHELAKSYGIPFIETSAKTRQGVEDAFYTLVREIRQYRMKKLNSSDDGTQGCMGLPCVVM

For the molecule `CCCN1C(=O)CN(C)C(=O)[C@@H]2CCN2C(=O)[C@H]([C@@H](C)CC)NC(=O)[C@H](CC(C)C)N(C)C(=O)C[C@@H](C(=O)N2CCOCC2)N(C)C(=O)[C@H](C2CCCC2)N(C)C(=O)[C@](C)(C(C)C)NC(=O)[C@@H]2CCCN2C(=O)[C@H](CCc2cc(F)c(C(F)(F)F)c(F)c2)NC(=O)CN(C)C(=O)[C@@H]1Cc1ccc(C(F)(F)F)cc1` [PP0773] ([NMeL]I[Aze][Sar][NPrPhe(4-CF3)][Sar][hPhe(3,5-F2-4-CF3)]P[αMeV][NMeGly(cPent)][NMeD]-Morpholide; lactam N-11), the “HRAS/KRAS (ratio of KD value with respect to GDP-bound HRAS wild-type protein to KD value with respect to KRAS)” value in test [1] was “B (a compound having 3 or more and less than 10 is denoted as B)”. Moreover, the “NRAS/KRAS (ratio of KD value with respect to GDP-bound NRAS wild-type protein to KD value with respect to KRAS)” value in test [2] is “B (a compound having 3 or more and less than 10 is denoted as B)”.
For the molecule `CCCN1C(=O)CN(C)C(=O)[C@@H]2CCN2C(=O)[C@H]([C@@H](C)CC)NC(=O)[C@H](CC(C)C)N(C)C(=O)C[C@@H](C(=O)N2CCOCC2)N(C)C(=O)[C@H](C2CCCC2)N(C)C(=O)[C@](C)([C@@H](C)CC)NC(=O)[C@@H]2CCCN2C(=O)[C@H](CCc2cc(F)c(C(F)(F)F)c(F)c2)NC(=O)CN(C)C(=O)[C@@H]1Cc1ccc(C(F)(F)F)cc1` [PP0774] ([NMeL]I[Aze][Sar][NPrPhe(4-CF3)][Sar][hPhe(3,5-F2-4-CF3)]P[αMeI][NMeGly(cPent)][NMeD]-Morpholide; lactam N-11), the “HRAS/KRAS (ratio of KD value with respect to GDP-bound HRAS wild-type protein to KD value with respect to KRAS)” value in test [1] is “B (a compound having 3 or more and less than 10 is denoted as B)”. Also, the “NRAS/KRAS (ratio of KD value with respect to GDP-bound NRAS wild-type protein to KD value with respect to KRAS)” value in test [2] is “B (a compound having 3 or more and less than 10 is denoted as B)”.
Regarding `CCCN1C(=O)CN(C)C(=O)[C@@H]2CCN2C(=O)[C@H]([C@@H](C)CC)NC(=O)[C@H](CC(C)C)N(C)C(=O)C[C@@H](C(=O)N2CCOCC2)N(C)C(=O)[C@H](C2CCCC2)N(C)C(=O)[C@](C)(CCC)NC(=O)[C@@H]2CCCN2C(=O)[C@H](CCc2cc(F)c(C(F)(F)F)c(F)c2)NC(=O)CN(C)C(=O)[C@@H]1Cc1ccc(C(F)(F)F)cc1` [PP0775] ([NMeL]I[Aze][Sar][NPrPhe(4-CF3)][Sar][hPhe(3,5-F2-4-CF3)]P[X13][NMeGly(cPent)][NMeD]-Morpholide; lactam N-11), the “HRAS/KRAS (ratio of KD value with respect to GDP-bound HRAS wild-type protein to KD value with respect to KRAS)” value in test [1] was “B (a compound having 3 or more and less than 10 is denoted as B)”. Moreover, the “NRAS/KRAS (ratio of KD value with respect to GDP-bound NRAS wild-type protein to KD value with respect to KRAS)” value in test [2] was “B (a compound having 3 or more and less than 10 is denoted as B)”.
On to `CCCN1C(=O)CN(C)C(=O)[C@@H]2CCN2C(=O)[C@H]([C@@H](C)CC)NC(=O)[C@H](CC(C)C)N(C)C(=O)C[C@@H](C(=O)N2CCOCC2)N(C)C(=O)[C@H](C2CCCC2)N(C)C(=O)[C@](C)(CC(C)C)NC(=O)[C@@H]2CCCN2C(=O)[C@H](CCc2cc(F)c(C(F)(F)F)c(F)c2)NC(=O)CN(C)C(=O)[C@@H]1Cc1ccc(C(F)(F)F)cc1` [PP0776] ([NMeL]I[Aze][Sar][NPrPhe(4-CF3)][Sar][hPhe(3,5-F2-4-CF3)]P[αMeL][NMeGly(cPent)][NMeD]-Morpholide; lactam N-11), for which, in test [1], the “HRAS/KRAS (ratio of KD value with respect to GDP-bound HRAS wild-type protein to KD value with respect to KRAS)” value is “B (a compound having 3 or more and less than 10 is denoted as B)”. Besides, the “NRAS/KRAS (ratio of KD value with respect to GDP-bound NRAS wild-type protein to KD value with respect to KRAS)” value in test [2] is “B (a compound having 3 or more and less than 10 is denoted as B)”.
Regarding `CCCN1C(=O)CN(C)C(=O)[C@@H]2CCN2C(=O)[C@H]([C@@H](C)CC)NC(=O)[C@H](CC(C)C)N(C)C(=O)C[C@@H](C(=O)N2CCOCC2)N(C)C(=O)[C@H](C2CCCC2)N(C)C(=O)[C@](C)(Cc2ccccc2)NC(=O)[C@@H]2CCCN2C(=O)[C@H](CCc2cc(F)c(C(F)(F)F)c(F)c2)NC(=O)CN(C)C(=O)[C@@H]1Cc1ccc(C(F)(F)F)cc1` [PP0778] ([NMeL]I[Aze][Sar][NPrPhe(4-CF3)][Sar][hPhe(3,5-F2-4-CF3)]P[αMeF][NMeGly(cPent)][NMeD]-Morpholide; lactam N-11), in test [1], the “HRAS/KRAS (ratio of KD value with respect to GDP-bound HRAS wild-type protein to KD value with respect to KRAS)” value is “B (a compound having 3 or more and less than 10 is denoted as B)”. The “NRAS/KRAS (ratio of KD value with respect to GDP-bound NRAS wild-type protein to KD value with respect to KRAS)” value in test [2] was “B (a compound having 3 or more and less than 10 is denoted as B)”.
As to `CCCN1C(=O)CN(C)C(=O)[C@@H]2CCN2C(=O)[C@H]([C@@H](C)CC)NC(=O)[C@H](CC(C)C)N(C)C(=O)C[C@@H](C(=O)N2CCOCC2)N(C)C(=O)[C@H](C2CCCC2)N(C)C(=O)[C@](C)(COC)NC(=O)[C@@H]2CCCN2C(=O)[C@H](CCc2cc(F)c(C(F)(F)F)c(F)c2)NC(=O)CN(C)C(=O)[C@@H]1Cc1ccc(C(F)(F)F)cc1` [PP0779] ([NMeL]I[Aze][Sar][NPrPhe(4-CF3)][Sar][hPhe(3,5-F2-4-CF3)]P[αMeS](Me)[NMeGly(cPent)][NMeD]-Morpholide; lactam N-11), the “HRAS/KRAS (ratio of KD value with respect to GDP-bound HRAS wild-type protein to KD value with respect to KRAS)” value in test [1] is “B (a compound having 3 or more and less than 10 is denoted as B)”. For the same molecule, the “NRAS/KRAS (ratio of KD value with respect to GDP-bound NRAS wild-type protein to KD value with respect to KRAS)” value in test [2] was “B (a compound having 3 or more and less than 10 is denoted as B)”.
`C=CCOC[C@]1(C)NC(=O)[C@@H]2CCCN2C(=O)[C@H](CCc2cc(F)c(C(F)(F)F)c(F)c2)NC(=O)CN(C)C(=O)[C@H](Cc2ccc(C(F)(F)F)cc2)N(CCC)C(=O)CN(C)C(=O)[C@@H]2CCN2C(=O)[C@H]([C@@H](C)CC)NC(=O)[C@H](CC(C)C)N(C)C(=O)C[C@@H](C(=O)N2CCOCC2)N(C)C(=O)[C@H](C2CCCC2)N(C)C1=O` [PP0780] ([NMeL]I[Aze][Sar][NPrPhe(4-CF3)][Sar][hPhe(3,5-F2-4-CF3)]P[αMeS](Allyl)[NMeGly(cPent)][NMeD]-Morpholide; lactam N-11): the “HRAS/KRAS (ratio of KD value with respect to GDP-bound HRAS wild-type protein to KD value with respect to KRAS)” value in test [1] is “B (a compound having 3 or more and less than 10 is denoted as B)”. The “NRAS/KRAS (ratio of KD value with respect to GDP-bound NRAS wild-type protein to KD value with respect to KRAS)” value in test [2] is “B (a compound having 3 or more and less than 10 is denoted as B)”.
Consider `CCCN1C(=O)CN(C)C(=O)[C@@H]2CCN2C(=O)[C@H]([C@@H](C)CC)NC(=O)[C@H](CC(C)C)N(C)C(=O)C[C@@H](C(=O)N2CCOCC2)N(C)C(=O)[C@H](C2CCCC2)N(C)C(=O)C2(COC2)NC(=O)[C@@H]2CCCN2C(=O)[C@H](CCc2cc(F)c(C(F)(F)F)c(F)c2)NC(=O)CN(C)C(=O)[C@@H]1Cc1ccc(C(F)(F)F)cc1` [PP0782] ([NMeL]I[Aze][Sar][NPrPhe(4-CF3)][Sar][hPhe(3,5-F2-4-CF3)]P[Ac4c(3-oxa)][NMeGly(cPent)][NMeD]-Morpholide; lactam N-11), for which the “HRAS/KRAS (ratio of KD value with respect to GDP-bound HRAS wild-type protein to KD value with respect to KRAS)” value in test [1] is “B (a compound having 3 or more and less than 10 is denoted as B)”. In test [2], the “NRAS/KRAS (ratio of KD value with respect to GDP-bound NRAS wild-type protein to KD value with respect to KRAS)” value is “B (a compound having 3 or more and less than 10 is denoted as B)”.
